Consider 18 compounds from patent US20250179073A1, “TRICYCLIC HETEROCYCLE COMPOUNDS AS IAP ANTAGONISTS” (Ascentage Pharma (Suzhou) Co., Ltd., priority 2022, published 2025).

Molecules are shown by their SMILES.

The experiment has as its system MDA-MB-231 cells. The experiment can be described thus: Cell proliferation assay (CellTiter-Glo), MDA-MB-231. The class given is cell-based. The settings on record: 72 h treatment, Celltiter-Glo luminescence. The method in brief: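 MDA-MB-231 (RPMI-1640/10% FBS) and EVSA-T (MEM/10% FBS) cells, 10000 cells/well, exposed 72 h to compound at […]. Viability read by CellTiter-Glo luminescence after 15 min at room temperature. IC50 from control-normalised curve fitting.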
On the technique in general: Cellular ATP, detected with luciferase, serves as a proxy for viable cell number.

`C[C@@H]1CN(CC(=O)N2CC(C)(C)c3c2cc(Cc2ccc(F)cc2)c2nn(Cc4ncccn4)c(=O)n32)[C@@H](CN2CCOC[C@H]2C)CN1` [Compound 221, 4-(4-fluorobenzyl)-8,8-dimethyl-6-(2-((2R,5R)-5-methyl-2-(((R)-3-methylmorpholino)methyl)piperazin-1-yl)acetyl)-2-(pyrimidin-2-ylmethyl)-2,6,7,8-tetrahydro-1H-pyrrolo[2,3-e][1,2,4]triazolo[4,3-a]pyridin-1-one]: the IC50 (Homo sapiens, MDA-MB-231, 72 h) is 190 nM.
As for `C[C@@H]1CN(CC(=O)N2CC(C)(C)c3c2cc(Cc2ccc(F)cc2)c2nc(N4C[C@@H](O)[C@H](O)C4)nn32)[C@@H](CN2CCOC[C@H]2C)CN1` [Compound 226, 1-(2-((3R,4R)-3,4-dihydroxypyrrolidin-1-yl)-4-(4-fluorobenzyl)-8,8-dimethyl-7,8-dihydro-6H-pyrrolo[2,3-e][1,2,4]triazolo[1,5-a]pyridin-6-yl)-2-((2R,5R)-5-methyl-2-(((R)-3-methylmorpholino)methyl)piperazin-1-yl)ethan-1-one], the IC50 is 530 nM.
For `C[C@@H]1CN(CC(=O)N2CC(C)(C)c3c2cc(Cc2ccc(F)cc2)c2nn(Cc4ncn(C)n4)c(=O)n32)[C@@H](CN2CCOC[C@H]2C)CN1` [Compound 232, 4-(4-fluorobenzyl)-8,8-dimethyl-2-((1-methyl-1H-1,2,4-triazol-3-yl)methyl)-6-(2-((2R,5R)-5-methyl-2-(((R)-3-methylmorpholino)methyl)piperazin-1-yl)acetyl)-2,6,7,8-tetrahydro-1H-pyrrolo[2,3-e][1,2,4]triazolo[4,3-a]pyridin-1-one], where the note is “Homo sapiens, MDA-MB-231, 72 h”, the IC50 is 330 nM.
Same read-out and setting: the figure for `C[C@@H]1CN(CC(=O)N2CC(C)(C)c3c2cc(Cc2ccc(F)cc2)c2nn(C[C@@H]4COCCO4)c(=O)n32)[C@@H](CN2CCOC[C@H]2C)CN1` [Compound 233, 2-(((R)-1,4-dioxan-2-yl)methyl)-4-(4-fluorobenzyl)-8,8-di methyl-6-(2-((2R,5R)-5-methyl-2-(((R)-3-methylmorpholino)methyl)piperazin-1-yl)acetyl)-2,6,7,8-tetrahydro-1H-pyrrolo[2,3-e][1,2,4]triazolo[4,3-a]pyridin-1-one] is 260 nM.
On the same count and under the same terms, under `C[C@@H]1CN(CC(=O)N2CC(C)(C)c3c2cc(Cc2ccc(F)cc2)c2nc(N4CCNC4=O)nn32)[C@@H](CN2CCOC[C@H]2C)CN1` [Compound 248, 1-(4-(4-fluorobenzyl)-8,8-dimethyl-6-(2-((2R,5R)-5-methyl-2-(((R)-3-methylmorpholino)methyl)piperazin-1-yl)acetyl)-7,8-dihydro-6H-pyrrolo[2,3-e][1,2,4]triazolo[1,5-a]pyridin-2-yl)imidazolidin-2-one] stands 47 nM; under `C[C@@H]1CN(CC(=O)N2CC(C)(C)c3c2cc(Cc2ccc(F)cc2)c2nn(C4CNC4)c(=O)n32)[C@@H](CN2CCOC[C@H]2C)CN1` [Compound 249, 2-(azetidin-3-yl)-4-(4-fluorobenzyl)-8,8-dimethyl-6-(2-((2R,5R)-5-methyl-2-(((R)-3-methylmorpholino)methyl)piperazin-1-yl)acetyl)-2,6,7,8-tetrahydro-1H-pyrrolo[2,3-e][1,2,4]triazolo[4,3-a]pyridin-1-one], 41 nM.
The same measure, in the same setting: under `C[C@@H]1CN(CC(=O)N2CC(C)(C)c3c2cc(Cc2ccc(F)cc2)c2nn(Cc4cccnn4)c(=O)n32)[C@@H](CN2CCOC[C@H]2C)CN1` [Compound 253, 4-(4-fluorobenzyl)-8,8-dimethyl-6-(2-((2R,5R)-5-methyl-2-(((R)-3-methylmorpholino)methyl)piperazin-1-yl)acetyl)-2-(pyridazin-3-ylmethyl)-2,6,7,8-tetrahydro-1H-pyrrolo[2,3-e][1,2,4]triazolo[4,3-a]pyridin-1-one] stands 230 nM.
On to `CNC(=O)c1nc2c(Cc3ccc(F)cc3)cc3c(n2n1)C(C)(C)CN3C(=O)CN1C[C@@H](C)NC[C@@H]1CN1CCOC[C@H]1C` [Compound 255, 4-(4-fluorobenzyl)-N,8,8-trimethyl-6-(2-((2R,5R)-5-methyl-2-(((R)-3-methylmorpholino)methyl)piperazin-1-yl)acetyl)-7,8-dihydro-6H-pyrrolo[2,3-e][1,2,4]triazolo[1,5-a]pyridine-2-carboxamide], for which, for the setting “Homo sapiens, MDA-MB-231, 72 h”, the IC50 came out at 580 nM.
Regarding `[2H]C([2H])([2H])NC(=O)c1nc2c(Cc3ccc(F)cc3)cc3c(n2n1)C(C)(C)CN3C(=O)CN1C[C@@H](C)NC[C@@H]1CN1CCOC[C@H]1C` [Compound 258, 4-(4-fluorobenzyl)-8,8-dimethyl-N-(methyl-d3)-6-(2-((2R,5R)-5-methyl-2-(((R)-3-methylmorpholino)methyl)piperazin-1-yl)acetyl)-7,8-dihydro-6H-pyrrolo[2,3-e][1,2,4]triazolo[1,5-a]pyridine-2-carboxamide], the IC50 (Homo sapiens, MDA-MB-231, 72 h) was 195 nM.
On the same count and under the same terms, under `C[C@@H]1CN(CC(=O)N2CC(C)(C)c3c2cc(Cc2ccc(F)cc2)c2nn(C(CO)CO)c(=O)n32)[C@@H](CN2CCOC[C@H]2C)CN1` [Compound 268, 2-(1,3-dihydroxypropan-2-yl)-4-(4-fluorobenzyl)-8,8-dimethyl-6-(2-((2R,5R)-5-methyl-2-(((R)-3-methylmorpholino)methyl)piperazin-1-yl)acetyl)-2,6,7,8-tetrahydro-1H-pyrrolo[2,3-e][1,2,4]triazolo[4,3-a]pyridin-1-one] stands 350 nM.
Still for that read-out and setting: under `C[C@@H]1CN(CC(=O)N2CC(C)(C)c3c2cc(Cc2ccc(F)cc2F)c2nn(CC(C)(C)O)c(=O)n32)[C@@H](CN2CCOC[C@H]2C)CN1` [Compound 274, 4-(2,4-difluorobenzyl)-2-(2-hydroxy-2-methylpropyl)-8,8-dimethyl-6-(2-((2R,5R)-5-methyl-2-(((R)-3-methylmorpholino)methyl)piperazin-1-yl)acetyl)-2,6,7,8-tetrahydro-1H-pyrrolo[2,3-e][1,2,4]triazolo[4,3-a]pyridin-1-one] stands 9 nM; under `C[C@@H]1CN(CC(=O)N2CC(C)(C)c3c2cc(Cc2ccc(F)cc2)c2nn(CC(C)(C)O)c(=O)n32)[C@@H](CN2C3CCC2COC3)CN1` [Compound 276, 6-(2-((2R,5R)-2-((3-oxa-8-azabicyclo[3.2.1]octan-8-yl)methyl)-5-methylpiperazin-1-yl)acetyl)-4-(4-fluorobenzyl)-2-(2-hydroxy-2-methylpropyl)-8,8-dimethyl-2,6,7,8-tetrahydro-1H-pyrrolo[2,3-e][1,2,4]triazolo[4,3-a]pyridin-1-one], 390 nM; under `C[C@@H]1CN(CC(=O)N2CC(C)(C)c3c2cc(Cc2ccc(F)cc2)c2nn(CC(C)(C)O)c(=O)n32)[C@@H](CN2CCOCC2(C)C)CN1` [Compound 277, 6-(2-((2R,5R)-2-((3,3-dimethylmorpholino)methyl)-5-methylpiperazin-1-yl)acetyl)-4-(4-fluorobenzyl)-2-(2-hydroxy-2-methylpropyl)-8,8-dimethyl-2,6,7,8-tetrahydro-1H-pyrrolo[2,3-e][1,2,4]triazolo[4,3-a]pyridin-1-one], 67 nM.
Still for that read-out and setting: under `COC(=O)N1CCN(C[C@H]2CN[C@H](C)CN2CC(=O)N2CC(C)(C)c3c2cc(Cc2ccc(F)cc2)c2nn(CC(C)(C)O)c(=O)n32)[C@H](C)C1` [Compound 280, methyl (R)-4-(((2R,5R)-1-(2-(4-(4-fluorobenzyl)-2-(2-hydroxy-2-methylpropyl)-8,8-dimethyl-1-oxo-1,2,7,8-tetrahydro-6H-pyrrolo[2,3-e][1,2,4]triazolo[4,3-a]pyridin-6-yl)-2-oxoethyl)-5-methylpiperazin-2-yl)methyl)-3-methylpiperazine-1-carboxylate] stands 68 nM; under `C[C@@H]1CN(CC(=O)N2CC(C)(C)c3c2cc(Cc2ccc(F)cc2)c2nn(CC(C)(C)O)c(=O)n32)[C@@H](CN2CCC(F)(F)C[C@H]2C)CN1` [Compound 281, 6-(2-((2R,5R)-2-(((R)-4,4-difluoro-2-methylpiperidin-1-yl)methyl)-5-methylpiperazin-1-yl)acetyl)-4-(4-fluorobenzyl)-2-(2-hydroxy-2-methylpropyl)-8,8-dimethyl-2,6,7,8-tetrahydro-1H-pyrrolo[2,3-e][1,2,4]triazolo[4,3-a]pyridin-1-one], 26 nM; under `CC(=O)N1CCN(C[C@H]2CN[C@H](C)CN2CC(=O)N2CC(C)(C)c3c2cc(Cc2ccc(F)cc2)c2nn(CC(C)(C)O)c(=O)n32)[C@H](C)C1` [Compound 282, 6-(2-((2R,5R)-2-(((R)-4-acetyl-2-methylpiperazin-1-yl)methyl)-5-methylpiperazin-1-yl)acetyl)-4-(4-fluorobenzyl)-2-(2-hydroxy-2-methylpropyl)-8,8-dimethyl-2,6,7,8-tetrahydro-1H-pyrrolo[2,3-e][1,2,4]triazolo[4,3-a]pyridin-1-one], 660 nM.
Turning to `C[C@@H]1CN(CC(=O)N2CC(C)(C)c3c2cc(Cc2ccc(F)cc2)c2nn(CC(C)(C)O)c(=O)n32)[C@@H](CN2C[C@@H]3C[C@H]2CO3)CN1` [Compound 283, 6-(2-((2R,5R)-2-(((1S,4S)-2-oxa-5-azabicyclo[2.2.1]heptan-5-yl)methyl)-5-methylpiperazin-1-yl)acetyl)-4-(4-fluorobenzyl)-2-(2-hydroxy-2-methylpropyl)-8,8-dimethyl-2,6,7,8-tetrahydro-1H-pyrrolo[2,3-e][1,2,4]triazolo[4,3-a]pyridin-1-one], the IC50 (Homo sapiens, MDA-MB-231, 72 h) stood at 360 nM.
Still for that read-out and setting: under `C[C@@H]1CN(CC(=O)N2CC(C)(C)c3c2cc(Cc2ccc(F)cc2)c2nn(CC(C)(C)O)c(=O)n32)[C@@H](CN2C[C@H]3C[C@@H]2CO3)CN1` [Compound 284, 6-(2-((2R,5R)-2-(((1R,4R)-2-oxa-5-azabicyclo[2.2.1]heptan-5-yl)methyl)-5-methylpiperazin-1-yl)acetyl)-4-(4-fluorobenzyl)-2-(2-hydroxy-2-methylpropyl)-8,8-dimethyl-2,6,7,8-tetrahydro-1H-pyrrolo[2,3-e][1,2,4]triazolo[4,3-a]pyridin-1-one] stands 250 nM.

Usually IC50 stands for the concentration at which inhibition is half-maximal.
